Experimental data: patent publication US9644213B2, “Method of enhancing plant drought tolerance by expression of NDR1” (BOARD OF TRUSTEES OF MICHIGAN STATE UNIVERSITY, priority 2012, dated 2017)

What was measured:
[1] = system: Arabidopsis thaliana Col-0 seeds; assay: Seed germination assay on ABA medium; format: in vivo
Description: (§1) Arabidopsis thaliana Col-0 and ndr1-1 seeds were surface sterilized with 50% bleach and 0.1% Triton X-100 for 20 min, with shaking, and rinsed five times with sterile distilled water under horizontal laminar flow hood. […] Plates were stratified at 4° C. for 4 days, in the dark, before being transferred to a growth chamber at 20° C., with a 12 h/12 h light/dark cycle and a light intensity of 120 μmol photons m^−2 s^−1.
(§2) During seed germination and dormancy assays, the radicle emergence was scored as germination and obvious cotyledons formation with green color was recorded as green cotyledons, respectively. The experiment was repeated five times, independently.

[2] = system: Arabidopsis thaliana ndr1-1 seeds; assay: Seed germination assay on ABA medium; format: in vivo; details: ndr1 mutant
Description: as §1, §2

ndr1 stomata = assay: ABA-induced stomata closure in epidermal peels; format: cell-based, Arabidopsis thaliana; details: 10 μM ABA, 1 h, vs mock
Description: (§3) Stomata serve an important function in response to water stress, in large part by regulating transpiration rates. As an integral part of water stress, the regulation of stomatal aperture is a mechanism through which ABA-mediated signaling drives the conformational change in the shape of the guard cells, leading to a decrease in aperture size. To determine its putative role in linking ABA and stomata response, the NDR1 function was assayed. Epidermal peels of WT Col-0 and the ndr1 mutant were treated with 10 μM ABA, and after 1 hour, the stomata apertures were measured.

WT Col-0 stomata = assay: ABA-induced stomata closure in epidermal peels; format: cell-based, Arabidopsis thaliana; details: WT Col-0 epidermal peels; 10 μM ABA; 1 h; vs mock
Description: as §3

With `CC1=CC(=O)CC(C)(C)[C@@]1(O)/C=C/C(C)=C\C(=O)O` [ABA, abscisic acid] the “germination rate (radicle emergence)” value ([1]; 0.5 μM ABA) was 65%, the “germination rate (radicle emergence)” value ([1]; 1.0 μM ABA) was 36% and the “germination rate (radicle emergence)” value ([2]; 0.5 μM ABA) was 90%. For the same molecule, the “germination rate (radicle emergence)” value ([2]; 1.0 μM ABA) was 65%, the stomata aperture (ndr1 stomata) was “did not show a change in aperture” and the stomata aperture (WT Col-0 stomata) was “significant reduction in aperture”.
